According to ChEMBL document CHEMBL2203030, “Synthesis, characterization, antidepressant and antioxidant activity of novel piperamides bearing piperidine and piperazine analogues” (Bioorg Med Chem Lett, 2012):
≈ marks a conversion by molar mass, not a printed value.

Legend:
Aspergillus flavus [1] = assay: Antimicrobial activity against Aspergillus flavus NCIM 524 at 100 ug/mL incubated for 48 hrs by agar disc diffusion method; assay type: functional; conditions: NCIM 524, 48 h, read-out: IZ
Mus musculus [2] = assay: Antidepressant activity in Swiss albino mouse assessed as mean immobility time measured during last 4 mins of single 6 mins test session at 20 mg/kg, po by forced swim test (reference value: 75.33 +/- 3.35 secs); assay type: functional
Pseudomonas aeruginosa [3] = assay: Antimicrobial activity against Pseudomonas aeruginosa NCIM 5029 at 100 ug/mL incubated for 24 hrs by agar disc diffusion method; assay type: functional; conditions: NCIM 5029, 24 h, read-out: IZ
Escherichia coli [4] = assay: Antimicrobial activity against Escherichia coli NCIM 2574 by broth dilution method; assay type: functional
Bacillus subtilis [5] = assay: Antimicrobial activity against Bacillus subtilis NCIM 2999 by broth dilution method; assay type: functional
[6] = test system: Radical scavenging activity; assay: Antioxidant activity assessed as DPPH free radical scavenging activity by spectrophotometry; assay type: functional
Aspergillus flavus [7] = assay: Antimicrobial activity against Aspergillus flavus NCIM 524 by broth dilution method; assay type: functional
[8] = Antioxidant activity assessed as superoxide scavenging activity using xanthine-xanthine oxidase system by NBT dye reduction based assay; assay type: functional
Candida albicans [9] = assay: Antimicrobial activity against Candida albicans NCIM 3471 at 100 ug/mL incubated for 48 hrs by agar disc diffusion method; assay type: functional; conditions: NCIM 3471, 48 h, read-out: IZ
Staphylococcus aureus [10] = assay: Antimicrobial activity against Staphylococcus aureus NCIM 5021 by broth dilution method; assay type: functional
Mus musculus [11] = assay: Antidepressant activity in Swiss albino mouse assessed as mean immobility time measured during 6 mins period at 20 mg/kg, po administered 30 mins before test by tail suspension test (reference value: 185.7 +/- 5.33 secs); assay type: functional
Pseudomonas aeruginosa [12] = assay: Antimicrobial activity against Pseudomonas aeruginosa NCIM 5029 by broth dilution method; assay type: functional
Candida albicans [13] = assay: Antimicrobial activity against Candida albicans NCIM 3471 by broth dilution method; assay type: functional
Escherichia coli [14] = assay: Antimicrobial activity against Escherichia coli NCIM 2574 at 100 ug/mL incubated for 24 hrs by agar disc diffusion method; assay type: functional; conditions: NCIM 2574, 24 h, read-out: IZ
Bacillus subtilis [15] = assay: Antimicrobial activity against Bacillus subtilis NCIM 2999 at 100 ug/mL incubated for 24 hrs by agar disc diffusion method; assay type: functional; conditions: NCIM 2999, 24 h, read-out: IZ
Staphylococcus aureus [16] = assay: Antimicrobial activity against Staphylococcus aureus NCIM 5021 at 100 ug/mL incubated for 24 hrs by agar disc diffusion method; assay type: functional; conditions: NCIM 5021, 24 h, read-out: IZ
[17] = target: T1, Amine oxidase [flavin-containing] A (Mus musculus, UniProt Q64133); assay: Inhibition of MAOA in mouse brain mitochondrial fraction assessed as enzyme activity per mg of protein using 5-HT substrate incubated for 20 mins by UV-spectrophotometry; assay type: tissue-based
T1 sequence (Q64133 whole entry): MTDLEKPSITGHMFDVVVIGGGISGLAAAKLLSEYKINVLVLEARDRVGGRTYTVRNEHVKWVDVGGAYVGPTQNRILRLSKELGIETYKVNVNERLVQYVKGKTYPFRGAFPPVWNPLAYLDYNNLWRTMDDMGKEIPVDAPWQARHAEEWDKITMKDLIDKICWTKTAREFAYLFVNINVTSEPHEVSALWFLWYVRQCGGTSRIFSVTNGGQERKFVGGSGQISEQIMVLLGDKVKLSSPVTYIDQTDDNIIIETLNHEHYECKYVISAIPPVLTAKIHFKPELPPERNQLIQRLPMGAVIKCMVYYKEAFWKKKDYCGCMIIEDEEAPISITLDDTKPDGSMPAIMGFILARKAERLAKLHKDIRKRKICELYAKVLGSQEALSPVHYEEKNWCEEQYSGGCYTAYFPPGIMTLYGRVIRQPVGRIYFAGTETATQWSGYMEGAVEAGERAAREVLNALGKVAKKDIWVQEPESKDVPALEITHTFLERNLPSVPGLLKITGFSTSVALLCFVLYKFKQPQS

[18] = target: T2, Amine oxidase [flavin-containing] B (Mus musculus, UniProt Q8BW75); assay: Inhibition of MAOB in mouse brain mitochondrial fraction assessed as enzyme activity per mg of protein using beta-PEA substrate incubated for 20 mins by UV-spectrophotometry; assay type: tissue-based
T2 sequence (Q8BW75 whole entry): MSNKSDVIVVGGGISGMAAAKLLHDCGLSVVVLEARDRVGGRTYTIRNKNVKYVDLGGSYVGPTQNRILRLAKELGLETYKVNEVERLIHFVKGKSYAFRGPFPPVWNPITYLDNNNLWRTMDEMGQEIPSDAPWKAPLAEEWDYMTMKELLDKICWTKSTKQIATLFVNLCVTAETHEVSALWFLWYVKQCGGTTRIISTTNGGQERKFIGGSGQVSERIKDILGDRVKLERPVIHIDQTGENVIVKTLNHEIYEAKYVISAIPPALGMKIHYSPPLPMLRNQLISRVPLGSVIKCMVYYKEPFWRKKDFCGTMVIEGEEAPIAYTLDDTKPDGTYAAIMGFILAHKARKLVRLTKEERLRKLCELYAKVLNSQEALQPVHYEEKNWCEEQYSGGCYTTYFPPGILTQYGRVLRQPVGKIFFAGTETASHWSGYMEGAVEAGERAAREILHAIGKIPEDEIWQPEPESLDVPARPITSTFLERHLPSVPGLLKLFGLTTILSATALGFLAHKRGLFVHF

| MIC (Escherichia coli [4]) [µg/mL] | MIC (Bacillus subtilis [5]) [µg/mL] | IC50 [6] [µg/mL] | MIC (Aspergillus flavus [7]) [µg/mL] | IC50 [8] [µg/mL] | MIC (Staphylococcus aureus [10]) [µg/mL] | MIC (Pseudomonas aeruginosa [12]) [µg/mL] | MIC (Candida albicans [13]) [µg/mL] | Activity [17] [nmol] | Activity [18] [nmol] | Compound | zone of inhibition at 100 µg/mL (Aspergillus flavus [1]) [mm] | Time (Mus musculus [2]) [s] | zone of inhibition at 100 µg/mL (Pseudomonas aeruginosa [3]) [mm] | zone of inhibition at 100 µg/mL (Candida albicans [9]) [mm] | Time (Mus musculus [11]) [s] | zone of inhibition at 100 µg/mL (Escherichia coli [14]) [mm] | zone of inhibition at 100 µg/mL (Bacillus subtilis [15]) [mm] | zone of inhibition at 100 µg/mL (Staphylococcus aureus [16]) [mm] |
| --- | --- | --- | --- | --- | --- | --- | --- | --- | --- | --- | --- | --- | --- | --- | --- | --- | --- | --- |
| 40 (≈ 132 µM) | 25 (≈ 82.4 µM) | 15.3 (≈ 50.4 µM) | 30 (≈ 98.9 µM) | 19.8 (≈ 65.3 µM) | 24 (≈ 79.1 µM) | 36 (≈ 119 µM) | 30 (≈ 98.9 µM) | – | – | COc1cc(/C=C/C(=O)N2CCC(C)CC2)cc2c1OCO2 | 12 | 51.6 | 9 | 10 | 104.9 | 10 | 10 | 12 |
| – | – | 12.6 (≈ 71.5 µM) | – | – | – | – | – | – | – | O=C1O[C@H]([C@@H](O)CO)C(O)=C1O [ASCORBIC ACID] | – | – | – | – | – | – | – | – |
| > 100 | 62 (≈ 203 µM) | 13.4 (≈ 43.9 µM) | > 100 | 16.9 (≈ 55.3 µM) | 50 (≈ 164 µM) | > 100 | 100 (≈ 328 µM) | 16.63 | 17.33 | COc1cc(/C=C/C(=O)N2CCCC(O)C2)cc2c1OCO2 (configuration not stated) | 10 | 35.4 | 12 | 18 | 84.2 | 7 | 11 | 8 |
| 30 (≈ 104 µM) | 26 (≈ 89.9 µM) | 14.9 (≈ 51.5 µM) | 30 (≈ 104 µM) | 18.2 (≈ 62.9 µM) | 24 (≈ 82.9 µM) | 30 (≈ 104 µM) | 28 (≈ 96.8 µM) | 17.09 | 18.01 | COc1cc(/C=C/C(=O)N2CCCCC2)cc2c1OCO2 | 11 | 32.15 | 16 | 12.5 | 78.18 | 15 | 13 | 10 |
| – | – | – | – | – | – | – | – | – | – | CN(C)CCCN1c2ccccc2CCc2ccccc21 [IMIPRAMINE] | – | 32.17 | – | – | 79.5 | – | – | – |
| 18 (≈ 54.2 µM) | 14 (≈ 42.1 µM) | 23.2 (≈ 69.8 µM) | 22 (≈ 66.2 µM) | 21.9 (≈ 65.9 µM) | 14 (≈ 42.1 µM) | 18.7 (≈ 56.3 µM) | 15 (≈ 45.1 µM) | – | – | COc1cc(/C=C/C(=O)N2CCN(C(C)=O)CC2)cc2c1OCO2 | 10.4 | 55.83 | 14 | 11 | 116.2 | 12 | 16 | 11 |
| 20 (≈ 68.9 µM) | 50 (≈ 172 µM) | 20.1 (≈ 69.2 µM) | 15 (≈ 51.7 µM) | 38.4 (≈ 132 µM) | 30 (≈ 103 µM) | 25 (≈ 86.1 µM) | 25 (≈ 86.1 µM) | – | – | COc1cc(/C=C/C(=O)N2CCNCC2)cc2c1OCO2 | 14 | 71 | 13 | 10 | 178 | 11 | 10 | 14 |
